Source: patent US20220177508A1, “C10-Cyclic Substituted 13-Membered Macrolides and Uses Thereof” (Zikani Therapeutics, Inc., priority 2018, published 2022)
Values after ≈ are worked out from the molar mass of the structure shown. Like-named read-outs stand apart in the source and are kept apart here.

Key:
[1] = ester bond, chlorobenzene
[2] = test system: S. aureus MP-12; assay: Broth dilution MIC determination (CLSI), S. aureus MP-12; type: cell-based; conditions: Staphylococcus aureus, MP12; strain MP-12, broth dilution
[3] = test system: K. pneumoniae MP-546; assay: Broth dilution MIC determination (CLSI), K. pneumoniae MP-546; type: cell-based; conditions: Klebsiella pneumoniae, MP546; strain MP-546, broth dilution
[4] = test system: P. aeruginosa MP-3; assay: Broth dilution MIC determination (CLSI), P. aeruginosa MP-3; type: cell-based; conditions: Pseudomonas aeruginosa, MP3; strain MP-3, broth dilution
[5] = test system: K. pneumoniae MP-648; assay: Broth dilution MIC determination (CLSI), K. pneumoniae MP-648; type: cell-based; conditions: Klebsiella pneumoniae, MP648; strain MP-648, broth dilution
[6] = test system: A. baumannii MP-15; assay: Broth dilution MIC determination (CLSI), A. baumannii MP-15; type: cell-based; conditions: Acinetobacter baumannii, MP15; strain MP-15, broth dilution; read-out: MIC A. baumanii MP-15
[7] = test system: E. coli MP-4; assay: Broth dilution MIC determination (CLSI), E. coli MP-4; type: cell-based; conditions: Escherichia coli, MP4; strain MP-4, broth dilution; read-out: MIC E. coli MP-4

Row | MIC [2] [µg/mL] | MIC [3] [µg/mL] | MIC [4] [µg/mL] | MIC [5] [µg/mL] | MIC [6] [µg/mL] | MIC [7] [µg/mL] | Structure (SMILES) | ring closure, yield of all isomers ([1]; from CO[C@](C)(C[C@@H](C)CN(C(=O)OCc1ccccc1)[C@@H](CO)C1CCN(C(=O)OC(C)(C)C)CC1)[C@H](O[C@@H]1O[C@H](C)C[C@H](N(C)C)[C@H]1OC(=O)c1ccccc1)[C@@H](C)C1=C(C)C(=O)OC(C)(C)O1, 3.15 mM, 148.0 °C, 23.0 h) [%] | ring closure, yield of all isomers ([1]; from CO[C@](C)(C[C@@H](C)CN(C)[C@@H](CO)c1ccc(Br)cc1)[C@H](O[C@@H]1O[C@H](C)C[C@H](N(C)C)[C@H]1OC(=O)c1ccccc1)[C@@H](C)C1=C(C)C(=O)OC(C)(C)O1, 4.0 mM, 165.0 °C, 20.0 h) [%]
1 | – | – | – | – | – | – | CO[C@]1(C)C[C@@H](C)CN(C(=O)OCc2ccccc2)[C@H](C2CCN(C(=O)OC(C)(C)C)CC2)COC(=O)[C@H](C)C(=O)[C@H](C)[C@H]1O[C@@H]1O[C@H](C)C[C@H](N(C)C)[C@H]1OC(=O)c1ccccc1 | 29 | –
2 | – | – | – | – | – | – | CO[C@]1(C)C[C@@H](C)CN(C)[C@H](c2ccc(Br)cc2)COC(=O)C(C)C(=O)[C@H](C)[C@H]1O[C@@H]1O[C@H](C)C[C@H](N(C)C)[C@H]1OC(=O)c1ccccc1 (some centres unmarked) | – | 99
3 | 4 to 32 (≈ 6.01 to 48.1 µM) | < 4 | > 32 | 4 to 32 (≈ 6.01 to 48.1 µM) | > 32 | < 4 | CCCN1C[C@H](C)C[C@@](C)(OC)[C@H](O[C@@H]2O[C@H](C)C[C@H](N(C)C)[C@H]2O)[C@@H](C)C(=O)C(C)(C)C(=O)OC[C@H]1[C@H]1C[C@H](N(C)CC2CC2)C1 [Compound 95, (3R,6R,8R,9R,10R)-3-((1r,3R)-3-((cyclopropylmethyl)(methyl)amino)cyclobutyl)-9-(((2S,3R,4S,6R)-4-(dimethylamino)-3-hydroxy-6-methyltetrahydro-2H-pyran-2-yl)oxy)-8-methoxy-6,8,10,12,12-pentamethyl-4-propyl-1-oxa-4-azacyclotridecane-11,13-dione] | – | –
4 | > 32 | > 32 | > 32 | > 32 | > 32 | 4 to 32 (≈ 6.54 to 52.3 µM) | CCCN1CC([C@@H]2[C@@H](C)OC(=O)C(C)(C)C(=O)[C@H](C)[C@@H](O[C@@H]3O[C@H](C)C[C@H](N(C)C)[C@H]3O)[C@](C)(OC)C[C@@H](C)CN2C)C1 [Compound 136, (2R,3R,6R,8R,9R,10R)-9-(((2S,3R,4S,6R)-4-(dimethylamino)-3-hydroxy-6-methyltetrahydro-2H-pyran-2-yl)oxy)-8-methoxy-2,4,6,8,10,12,12-heptamethyl-3-(1-propylazetidin-3-yl)-1-oxa-4-azacyclotridecane-11,13-dione] | – | –
5 | 4 to 32 (≈ 6.18 to 49.5 µM) | 4 to 32 (≈ 6.18 to 49.5 µM) | > 32 | > 32 | > 32 | 4 to 32 (≈ 6.18 to 49.5 µM) | CO[C@]1(C)C[C@@H](C)CN(C)[C@H](C2CN(Cc3ccncc3)C2)COC(=O)C(C)(C)C(=O)[C@H](C)[C@H]1O[C@@H]1O[C@H](C)C[C@H](N(C)C)[C@H]1O [Compound 176, (3R,6R,8R,9R,10R)-9-(((2S,3R,4S,6R)-4-(dimethylamino)-3-hydroxy-6-methyltetrahydro-2H-pyran-2-yl)oxy)-8-methoxy-4,6,8,10,12,12-hexamethyl-3-(1-(pyridin-4-ylmethyl)azetidin-3-yl)-1-oxa-4-azacyclotridecane-11,13-dione] | – | –
